Consider 57 compounds from US12030877B2, “Prostaglandin E synthase inhibitors and methods for utilizing the same” (University of Kentucky Research Foundation, priority 2016, dated 2024).

SMILES strings stand for the structures.

One assay addresses T1, mPGES-1 (Homo sapiens, UniProt O14684).
T1 sequence (O14684 1-152): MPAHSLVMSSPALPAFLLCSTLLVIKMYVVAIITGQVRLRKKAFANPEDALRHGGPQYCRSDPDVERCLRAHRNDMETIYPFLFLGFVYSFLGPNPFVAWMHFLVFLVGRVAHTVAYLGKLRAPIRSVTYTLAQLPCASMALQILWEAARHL
Nature of the assay: mPGES-1 enzyme activity assay (PGE2 enzyme immunoassay), human enzyme. Also on record: made in house; host or cells: FreeStyle 293-F cells, crude microsomal preparation. To be noted: IC50 against mPGES-1, Human enzyme, recombinant microsomal enzyme; means ± SD, triplicate. The assay is classed as biochemical. The protocol: Studies were conducted to characterize the inhibitory activity against recombinant mPGES-1 of the compounds synthesized in accordance with Examples 1-4, and disclosed herein.
Briefly, FreeStyle 293-F cells were cultured following manufacturer's manual in FreeStyle 293 expression medium on orbit rotate shaker in 8% CO2 incubator at 37° C. Cells were transfected with 1.5 μg/mL of mPGES-1/pcDNA3 construct using FreeStyle Max reagent at a cell density of 1×10^6 for 2 days. Transfected cells were collected, washed, and sonicated in TSES buffer (15 mM Tris-HCl, pH 8.0 plus 0.25 M sucrose, 0.1 mM EDTA and 1 mM DTT) on ice. The broken cells were first centrifuged at 12,500×g for 10 min. The supernatant was further centrifuged at 105,000×g for 1 hr at 4° C. The pellet was washed and homogenized in PBS buffer. The crude microsomal mPGES-1 preparation was aliquoted and stored at −80° C. The crude protein concentration was 8 mg/mL.
The enzyme activity assays were performed on ice in 1.5 ml microfuge tubes by using the expressed mPGES-1. The reaction mixture contained: 0.2 M Na2HPO4/NaH2PO4, pH 7.2, 10 μL; 0.1 M GSH, 2.5 μL; diluted microsomal enzyme (80 μg/mL), 1 μL; PGH2 (0.31 mM in DMF), 5 μL; 1 μL inhibitor; and H2O in a final reaction volume of 100 μL. PGH2 was stored in dry ice and used to initiate the reaction.
Compounds were incubated with the enzyme for 15 min at room temperature before the addition of cold PGH2 (1 μM final) to initiate the enzyme reaction. After 30 s, 10 μL of SnCl2 (40 mg/mL) in ethanol was added to stop the reaction. The nonenzymatic conversion of PGH2 to PGE2 was performed in the same buffer devoid of enzyme. The reaction mixture was placed on ice until PGE2 production was determined by the PGE2 enzyme immunoassay as described earlier. IC50 values of the inhibitors were calculated by using the GraphPad Prism 4.0 program. The results are set forth in the tables provided in Examples 7-10.
What is called IC50 is the concentration that gives 50% inhibition. In the case of `O=C1NC(=O)C(=Cc2ccc(OCCCCC3CCCCC3)c(Br)c2)C(=O)N1` [Compound I-03], the IC50 amounted to 45 ± 8 nM.

As for `O=C1NC(=O)C(=Cc2ccc(OCCCCC3CCCCC3)c([N+](=O)[O-])c2)C(=O)N1` [Compound I-08], the IC50 is 67 ± 20 nM.

As for `O=C1NC(=O)C(=Cc2ccc(OCCCCC3CCCCC3)c(Br)c2)C(=O)N1` [Compound I-22], the half-maximal inhibitory concentration (IC50) is 20 ± 4 nM.

For `O=C1NC(=O)C(=Cc2ccc(OCCCCC3CCCCC3)c([N+](=O)[O-])c2)C(=O)N1` [Compound I-23], the IC50 came to 53 ± 14 nM.

`O=C1NC(=O)C(=Cc2ccc(OCCCC3CCCCC3)c(Cl)c2)C(=O)N1` [Compound I-24]: the IC50 worked out at 110 ± 21 nM.

`O=C1NC(=O)C(=Cc2ccc(OCCCC3CCCCC3)c(Br)c2)C(=O)N1` [Compound I-25]: the half-inhibitory concentration (IC50) is 104 ± 25 nM.

`O=C1NC(=O)C(=Cc2ccc(OCCCC3CCCCC3)c(Cl)c2)C(=O)N1` [Compound I-30]: the IC50 is 78 ± 13 nM.

Take `O=C1NC(=O)C(=Cc2ccc(OCCCC3CCCCC3)c(Br)c2)C(=O)N1` [Compound I-31]: the IC50 stood at 112 ± 13 nM.

The same assay, now with this note: compound at a concentration of 10 μM; read-out: % inhibition of the compound against mPGES-1, Human enzyme.
For orientation: inhibition means how much of the control response was suppressed. Turning to `CCCCOc1ccc(-c2nn(-c3ccccc3)cc2C=C2C(=O)N(C)C(=O)N(C)C2=O)cc1` [VI-19], the inhibition at 10 µM turned out to be 30%.

As to `CCCCOc1ccc(-c2nn(-c3ccc(Cl)cc3)cc2C=C2C(=O)N(C)C(=O)N(C)C2=O)cc1` [VI-20], the inhibition at 10 µM stood at 29%.

In the case of `CCCCCCCCOc1ccc(-c2nn(-c3ccccc3)cc2C=C2C(=O)N(C)C(=O)N(C)C2=O)cc1` [VI-21], the inhibition at 10 µM worked out at 16%.

Regarding `CCCCCCCCOc1ccc(-c2nn(-c3ccc(Cl)cc3)cc2C=C2C(=O)N(C)C(=O)N(C)C2=O)cc1` [VI-22], the inhibition at 10 µM amounted to 6.8%.

For `CCCCCCCCCCOc1ccc(-c2nn(-c3ccccc3)cc2C=C2C(=O)N(C)C(=O)N(C)C2=O)cc1` [VI-23], the inhibition at 10 µM is 0%.

On to `CCCCCCCCCCOc1ccc(-c2nn(-c3ccc(Cl)cc3)cc2C=C2C(=O)N(C)C(=O)N(C)C2=O)cc1` [VI-24], for which the inhibition at 10 µM turned out to be 0%.

For `CCOC(=O)/C(C#N)=C\c1cn(-c2ccc(Cl)cc2)nc1-c1ccc(OCC)cc1` [VII-03], the inhibition at 10 µM came out at 24%.

With `CCCCCCOc1ccc(-c2nn(-c3ccc(Cl)cc3)cc2/C=C(/C#N)C(=O)OCC)cc1` [VII-04], the inhibition at 10 µM was 37%.

`CCCCOc1ccc(-c2nn(-c3ccccc3)cc2C=C(C#N)C#N)cc1` [VII-22]: the inhibition at 10 µM turned out to be 54%.

Regarding `CCCCOc1ccc(-c2nn(-c3ccc(Cl)cc3)cc2C=C(C#N)C#N)cc1` [VII-23], the inhibition at 10 µM came out at 77%.

Turning to `CCCCCCCCOc1ccc(-c2nn(-c3ccccc3)cc2C=C(C#N)C#N)cc1` [VII-25], the inhibition at 10 µM was found to be 55%.

The same assay, now with this note: recombinant microsomal enzyme; means ± SD, triplicate; read-out: IC50 against mPGES-1, Human enzyme.
For `CCCCCCOc1ccc(/C=C(\C#N)C(=O)OCC)cc1[N+](=O)[O-]` [Compound V-01], the 50% inhibitory concentration (IC50) was determined as 8740 ± 1170 nM.

Turning to `CCCCCCCOc1ccc(/C=C(\C#N)C(=O)OCC)cc1[N+](=O)[O-]` [Compound V-02], the IC50 came out at 4820 ± 511 nM.

Regarding `CCCCCCCCOc1ccc(/C=C(\C#N)C(=O)OCC)cc1[N+](=O)[O-]` [Compound V-03], the IC50 came to 4750 ± 489 nM.

Take `CCCCCOc1ccc(/C=C(\C#N)C(=O)OCC)cc1` [Compound V-07]: the IC50 turned out to be 6220 ± 502 nM.

Regarding `CCCCCCOc1ccc(/C=C(\C#N)C(=O)OCC)cc1` [Compound V-08], the half-inhibitory concentration (IC50) amounted to 5240 ± 429 nM.

`CCCCCCCOc1ccc(/C=C(\C#N)C(=O)OCC)cc1` [Compound V-09]: the 50% inhibitory concentration (IC50) was determined as 3520 ± 471 nM.

As to `CCCCCCCOc1ccc(/C=C(\C#N)C(N)=O)cc1` [Compound V-11], the concentration for half-maximal inhibition (IC50) was determined as 376 ± 31 nM.

For the compound `CCCCCCOc1c(Br)cc(/C=C(\C#N)C(=O)OCC)cc1OC` [Compound V-12], the IC50 worked out at 998 ± 196 nM.

As for `CCCCCCCOc1c(Br)cc(/C=C(\C#N)C(=O)OCC)cc1OC` [Compound V-14], the IC50 came to 1010 ± 262 nM.

On to `CCCCCCCOc1c(Br)cc(/C=C(\C#N)C(N)=O)cc1OC` [Compound V-16], for which the IC50 was determined as 1300 ± 232 nM.

Regarding `CCCCCCCCOc1c(Br)cc(/C=C(\C#N)C(=O)OCC)cc1OC` [Compound V-17], the IC50 stood at 1870 ± 350 nM.

Turning to `CCCCCCCCCCCCCCCCCCOc1c(Br)cc(/C=C(\C#N)C(=O)OCC)cc1OC` [Compound V-19], the half-maximal inhibitory concentration (IC50) stood at 2270 ± 350 nM.

Take `CCCCOc1ccc(/C=C(\C#N)C(=O)OCC)cc1OC` [Compound V-21]: the IC50 worked out at 5630 ± 987 nM.

Consider `CCCCCCOc1ccc(/C=C(\C#N)C(=O)OCC)cc1OC` [Compound V-23], for which the IC50 came to 1450 ± 192 nM.

Take `CCCCCCOc1ccc(C=C(C#N)C#N)cc1OC` [Compound V-24]: the IC50 was 294 ± 60 nM.

As to `CCCCCCOc1ccc(/C=C(\C#N)C(=O)O)cc1OC` [Compound V-25], the IC50 came out at 242 ± 30 nM.

In the case of `CCCCCCCCCCOc1ccc(/C=C(\C#N)C(=O)OCC)cc1OC` [Compound V-26], the half-inhibitory concentration (IC50) worked out at 905 ± 177 nM.

For the compound `CCCCCCCCCCOc1ccc(/C=C(\C#N)C(N)=O)cc1OC` [Compound V-28], the IC50 is 4370 ± 915 nM.

With `CCCCCCCCCOc1ccc(/C=C(\C#N)C(=O)OCC)cc1OC` [Compound V-29], the half-inhibitory concentration (IC50) was determined as 2880 ± 687 nM.

Consider `CCCCCCCCCOc1ccc(/C=C(\C#N)C(N)=O)cc1OC` [Compound V-30], for which the IC50 is 1100 ± 212 nM.

For `CCCCCCCCCOc1ccc(/C=C(\C#N)C(=O)O)cc1OC` [Compound V-31], the IC50 was determined as 356 ± 123 nM.

Turning to `CCCCCCCOc1ccc(/C=C(\C#N)C(=O)OCC)cc1OC` [Compound V-32], the half-inhibitory concentration (IC50) is 4280 ± 1400 nM.

Take `CCCCCCCOc1ccc(/C=C(\C#N)C(N)=O)cc1OC` [Compound V-33]: the IC50 is 2210 ± 450 nM.

As for `CCCCCCCOc1ccc(/C=C(\C#N)C(=O)O)cc1OC` [Compound V-34], the IC50 came to 531 ± 116 nM.

Turning to `CCCCOc1ccc(/C=C(\C#N)C(=O)O)cc1OC` [Compound V-36], the IC50 was 541 ± 82 nM.

As to `CCCCOc1ccc(/C=C(\C#N)C(N)=O)cc1OC` [Compound V-37], the IC50 stood at 5410 ± 818 nM.

Consider `CCOC(=O)/C(C#N)=C/c1ccc(OCC2CCCCC2)c(OC)c1` [Compound V-38], for which the IC50 stood at 10800 ± 1040 nM.

Turning to `COc1cc(C=C(C#N)C#N)ccc1OCC1CCCCC1` [Compound V-39], the IC50 turned out to be 1450 ± 152 nM.

As for `COc1cc(/C=C(\C#N)C(N)=O)ccc1OCC1CCCCC1` [Compound V-40], the IC50 amounted to 1460 ± 119 nM.

With `CCCCCOc1ccc(/C=C(\C#N)C(=O)OCC)cc1OC` [Compound V-41], the 50% inhibitory concentration (IC50) stood at 4140 ± 858 nM.

With `CCCCCOc1ccc(C=C(C#N)C#N)cc1OC` [Compound V-42], the IC50 was determined as 439 ± 104 nM.

`CCCCCOc1ccc(/C=C/[N+](=O)[O-])cc1OC` [Compound V-43]: the IC50 came to 2770 ± 577 nM.

On to `CCCCCOc1ccc(/C=C(\C#N)C(=O)O)cc1OC` [Compound V-44], for which the IC50 stood at 456 ± 42 nM.

Take `CCOc1ccc(-c2nn(-c3ccc(Cl)cc3)cc2/C=C2\SC(=O)NC2=O)cc1` [VII-05]: the IC50 came to 1590 ± 557 nM.

Consider `CCCCCCOc1ccc(-c2nn(-c3ccc(Cl)cc3)cc2/C=C2\SC(=O)NC2=O)cc1` [VII-06], for which the IC50 was 1390 ± 303 nM.

On to `O=C1NC(=O)/C(=C/c2cn(-c3ccccc3)nc2-c2ccccc2)S1` [VII-07], for which the half-maximal inhibitory concentration (IC50) turned out to be 4930 ± 1160 nM.

In the case of `CCOc1ccc(-c2nn(-c3ccc(Cl)cc3)cc2/C=C2\SC(=S)NC2=O)cc1` [VII-08], the IC50 came to 1040 ± 293 nM.

On to `CCCCCCOc1ccc(-c2nn(-c3ccc(Cl)cc3)cc2/C=C2\SC(=S)NC2=O)cc1` [VII-09], for which the IC50 was found to be 1730 ± 666 nM.
